The values below come from patent publication US20260138978A1, “POSITIVE ALLOSTERIC MODULATORS OF THE MUSCARINIC ACETYLCHOLINE RECEPTOR M1” (Vanderbilt University, priority 2022, published 2026).

The target in experiment [1] is T1, human mAChRM1 (Homo sapiens, UniProt P11229).
T1 construct: host or cells: CHO-K1
T1 sequence (P11229 1-460): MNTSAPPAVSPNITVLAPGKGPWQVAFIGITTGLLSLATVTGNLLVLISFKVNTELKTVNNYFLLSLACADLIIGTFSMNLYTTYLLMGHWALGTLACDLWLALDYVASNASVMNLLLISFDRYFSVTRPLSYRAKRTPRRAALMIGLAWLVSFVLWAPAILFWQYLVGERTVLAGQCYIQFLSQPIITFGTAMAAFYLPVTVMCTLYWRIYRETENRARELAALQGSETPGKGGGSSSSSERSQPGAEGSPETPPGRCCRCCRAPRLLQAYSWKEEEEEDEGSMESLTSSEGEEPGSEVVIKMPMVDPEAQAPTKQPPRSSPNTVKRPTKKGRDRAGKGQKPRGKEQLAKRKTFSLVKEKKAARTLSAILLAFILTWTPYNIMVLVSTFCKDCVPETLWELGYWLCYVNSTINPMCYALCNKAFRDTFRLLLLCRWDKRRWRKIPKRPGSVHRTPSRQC
Briefly: mAChR M1 cell-based functional assay (calcium mobilization), agonist activity upon compound addition, Emax relative to acetylcholine maximum. Conditions: for Agonist Activity Human M1 EC50 / EC50: calcium mobilization upon compound addition; for Emax: relative to the maximum for acetylcholine. The text has this:
Lack of agonist activity may be measured as weak or no increase in calcium fluorescence in mAChRM1-transfected CHO-K1 cells in the presence of the compound, compared to the response of equivalent CHO-K1 cells in the absence of the compound. Lack of mAChRM1 agonist activity may be determined as a percent response relative to acetylcholine. For example, a disclosed compound may have less than or equal to 30%, 25%, 20%, 15%, 10%, 5%, or 1% mAChRM1 agonist activity relative to acetylcholine. A disclosed compound may have substantially no mAChRM1 agonist activity. […] The absence of mAChRM1 agonist activity may contribute to the avoidance of cholinergic adverse effect liability.
(§1) Chinese hamster ovary (CHO-K1) cells stably expressing rat (r)M1 were purchased from the American Type Culture Collection and cultured according to their indicated protocol. CHO cells stably expressing human (h)M2, hM3, and hM5 were described previously (Levey, et al., 1991); hM1 and hM4 cDNAs were purchased from Missouri S&T cDNA Resource; rM4 cDNA was provided by T. I. Bonner (National Institutes of Health, Bethesda, MD). rM2 and rM3 were cloned from a rat brain cDNA library and sequence verified. hM1, rM2, rM3, hM4, and rM4 cDNAs were used to stably transfect CHO-K1 cells purchased from the American Type Culture Collection using Lipofectamine 2000. To make stable rM2, hM2, rM3, hM4. and rM4 cell lines for use in calcium mobilization assays, these cells also were stably transfected with a chimeric G-protein (Gqi5) (provided by B. R. Conklin, University of California, San Francisco) using Lipofectamine 2000. rM1, hM1, rM3, hM3, rM5, and hM5 cells were grown in Ham's F-12 medium containing 10% heat-inactivated fetal bovine serum (FBS), 20 mM HEPES, and 50 μg/mL G418 sulfate. rM2-Gqi5, hM2-Gqi5, and hM4-Gqi5 cells were grown in the same medium also containing 500 µg/mL Hygromycin B. Stable rM4-Gqi5 cells were grown in DMEM containing 10% heat-inactivated FBS, 20 mM HEPES, 400 μg/mL G418 sulfate, and 500 μg/mL Hygromycin B.
(§2) For high throughput measurement of agonist-evoked increases in intracellular calcium, CHO-K1 cells stably expressing muscarinic receptors were plated in growth medium lacking G418 and hygromycin at 15,000 cells/[…] in Greiner 384-well black-walled, tissue culture (TC)-treated, clear-bottom plates (VWR). Cells were incubated overnight at 37° C. and 5% CO2. The next day, cells were washed using an ELX 405 (BioTek) with four washes (80 μL) of assay buffer then aspirated to 20 μL. Next, 20 μL of 16 μM Fluo-4/acetoxymethyl ester (Invitrogen, Carlsbad, CA) prepared as a 2.3 mM stock in DMSO and mixed in a 1:1 ratio with 10% (w/v) Pluronic F-127 and diluted in assay buffer was added to the wells and the cell plates were incubated for 50 min at 37° C. and 5% CO2. Dye was removed by washing with the ELX 405 (four 80 μL washes of assay buffer) then aspirated to 20 μL. Compound master plates were formatted in an 11 point CR^c format (1:3 dilutions) in 100% DMSO with a starting concentration of 10 mM using the BRAVO liquid handler (Agilent). Test compound CRCs were then transferred to daughter plates (240 nL) using the Echo acoustic plate reformatter (Labcyte, Sunnyvale, CA) and then diluted into assay buffer ([…]) to a 2× stock using a Thermo Fisher Combi (Thermo Fisher Scientific, Waltham, MA).
Calcium flux was measured using the Functional Drug Screening System (FDSS) 6000 (Hamamatsu Corporation, Tokyo, Japan) as an increase in the fluorescent static ratio. Compounds were applied to cells (20 μL, 2×) using the automated system of the FDSS 6000 at 4 s into the 300 s protocol and the data were collected at 1 Hz. […] Agonist activity was analyzed as a concentration-dependent increase in calcium mobilization upon compound addition. Emax values for agonist activity are expressed relative to the maximum for acetylcholine. Positive allosteric modulator activity was analyzed as a concentration-dependent increase in the EC20 acetylcholine response. […]
In general terms: A change in cytosolic calcium serves as a functional read-out for many receptors and channels.

Experiment [2] addresses T1, human mAChRM1. Briefly: mAChR M1 cell-based functional assay (calcium mobilization), positive allosteric modulator activity: increase in the EC20 acetylcholine response. Conditions: for Emax: PAM mode; for EC50: read-out: PAM Activity Human M1 EC50.
Description: as §1, §2
Calcium flux was measured using the Functional Drug Screening System (FDSS) 6000 (Hamamatsu Corporation, Tokyo, Japan) as an increase in the fluorescent static ratio. Compounds were applied to cells (20 μL, 2×) using the automated system of the FDSS 6000 at 4 s into the 300 s protocol and the data were collected at 1 Hz. […] Agonist activity was analyzed as a concentration-dependent increase in calcium mobilization upon compound addition. Emax values for agonist activity are expressed relative to the maximum for acetylcholine. Positive allosteric modulator activity was analyzed as a concentration-dependent increase in the EC20 acetylcholine response. Antagonist activity was analyzed as a concentration-dependent decrease in the EC80 acetylcholine response. Concentration-response curves were generated using a four-parameter logistical equation in XLfit curve fitting software (IDBS, Bridgewater, NJ) for Excel (Microsoft, Redmond, WA) or Prism (GraphPad Software, Inc., San Diego, CA).
Activity (EC50 and Emax) was determined in the mAChRM1 cell-based functional assay as described above and the data are shown in Table 16. The compound numbers correspond to the compound numbers used in Table 15.

Setting [3] is: increase in the EC20 acetylcholine response.

With `Cc1cc(-c2cc(C(C)(C)O)c3cn(C)nc3c2)ccc1CN1Cc2ncccc2C1=O` [Compound 22, 6-(4-(4-(2-hydroxypropan-2-yl)-2-methyl-2H-indazol-6-yl)-2-methylbenzyl)-6,7-dihydro-5H-pyrrolo[3,4-b]pyridin-5-one], the “Agonist Activity Human M1 EC50” value on human mAChRM1 [1] was “inactive”. At human mAChRM1 [2] (setting [3]), the “PAM Activity Human M1 EC50” value is “inactive”.

Regarding `Cn1cc2c(C(C)(C)O)cc(-c3ccc(CN4Cc5ncccc5C4=O)cc3)cc2n1` [Compound 23, 6-(4-(4-(2-hydroxypropan-2-yl)-2-methyl-2H-indazol-6-yl)benzyl)-6,7-dihydro-5H-pyrrolo[3,4-b]pyridin-5-one], the “Agonist Activity Human M1 EC50” value on human mAChRM1 [1] is “inactive”. In addition, the Emax at human mAChRM1 [2] came to 48%. On human mAChRM1 [2] (setting [3]), the EC50 is not below 10000 nM.

For the molecule `Cn1cc2c(-c3cc(F)c(CN4Cc5ncccc5C4=O)c(F)c3)cc(C(C)(C)O)cc2n1` [Compound 24, 6-(2,6-Difluoro-4-(6-(2-hydroxypropan-2-yl)-2-methyl-2H-indazol-4-yl)benzyl)-6,7-dihydro-5H-pyrrolo[3,4-b]pyridin-5-one], the “Agonist Activity Human M1 EC50” value at human mAChRM1 [1] is “inactive”. In addition, the Emax at human mAChRM1 [2] was 81%. On human mAChRM1 [2] (setting [3]), the concentration giving a half-maximal response (EC50) was determined as 1920 nM.

For `Cc1cc(-c2cc(C(C)(C)O)cc3nn(C)cc23)cc(F)c1CN1Cc2ncccc2C1=O` [Compound 25, 6-(2-fluoro-4-(6-(2-hydroxypropan-2-yl)-2-methyl-2H-indazol-4-yl)-6-methylbenzyl)-6,7-dihydro-5H-pyrrolo[3,4-b]pyridin-5-one], the “Agonist Activity Human M1 EC50” value at human mAChRM1 [1] was “inactive”. Moreover, the maximum response (Emax) at human mAChRM1 [2] was determined as 76%. The EC50 on human mAChRM1 [2] (setting [3]) came out at 2520 nM.

With `Cn1cc2c(-c3ccc(CN4Cc5ncccc5C4=O)c(F)c3)cc(C(C)(C)O)cc2n1` [Compound 26, 6-(2-fluoro-4-(6-(2-hydroxypropan-2-yl)-2-methyl-2H-indazol-4-yl)benzyl)-6,7-dihydro-5H-pyrrolo[3,4-b]pyridin-5-one], the “Agonist Activity Human M1 EC50” value at human mAChRM1 [1] was “inactive”. Besides, the Emax at human mAChRM1 [2] stood at 83%. Besides, the half-maximal effective concentration (EC50) on human mAChRM1 [2] (setting [3]) turned out to be 1280 nM.

As for `Cc1cc(-c2cc(C(C)(C)O)cc3nn(C)cc23)ccc1CN1Cc2ncccc2C1=O` [Compound 27, 6-(4-(6-(2-hydroxypropan-2-yl)-2-methyl-2H-indazol-4-yl)-2-methylbenzyl)-6,7-dihydro-5H-pyrrolo[3,4-b]pyridin-5-one], on human mAChRM1 [1], the “Agonist Activity Human M1 EC50” value is “inactive”. For the same molecule, the Emax at human mAChRM1 [2] came out at 83%. Besides, the concentration giving a half-maximal response (EC50) on human mAChRM1 [2] (setting [3]) is 3280 nM.

For `Cn1cc(-c2cc(F)c(CN3Cc4ncccc4C3=O)c(F)c2)c(C(C)(C)O)n1` [Compound 28, 6-(2,6-difluoro-4-(3-(2-hydroxypropan-2-yl)-1-methyl-1H-pyrazol-4-yl)benzyl)-6,7-dihydro-5H-pyrrolo[3,4-b]pyridin-5-one], the “Agonist Activity Human M1 EC50” value on human mAChRM1 [1] was “inactive”. Also, the Emax on human mAChRM1 [2] is 55%. In addition, the half-maximal effective concentration (EC50) at human mAChRM1 [2] (setting [3]) is not below 10000 nM.

`Cn1cc(-c2ccc(CN3Cc4ncccc4C3=O)c(F)c2)c(C(C)(C)O)n1` [Compound 29, 6-(2-fluoro-4-(3-(2-hydroxypropan-2-yl)-1-methyl-1H-pyrazol-4-yl)benzyl)-6,7-dihydro-5H-pyrrolo[3,4-b]pyridin-5-one]: the “Agonist Activity Human M1 EC50” value on human mAChRM1 [1] was “inactive”. Besides, at human mAChRM1 [2], the Emax is 56%. In addition, the EC50 at human mAChRM1 [2] (setting [3]) was not below 10000 nM.

On to `Cc1cc(-c2cn(C)nc2C(C)(C)O)cc(F)c1CN1Cc2ncccc2C1=O` [Compound 30, 6-(2-fluoro-4-(3-(2-hydroxypropan-2-yl)-1-methyl-1H-pyrazol-4-yl)-6-methylbenzyl)-6,7-dihydro-5H-pyrrolo[3,4-b]pyridin-5-one], for which the “Agonist Activity Human M1 EC50” value at human mAChRM1 [1] was “inactive”. For the same molecule, the Emax on human mAChRM1 [2] is 51%. Moreover, the 50% effective concentration (EC50) at human mAChRM1 [2] (setting [3]) was not below 10000 nM.

Turning to `Cc1cc(-c2cn(C)nc2C(C)(C)O)ccc1CN1Cc2ncccc2C1=O` [Compound 31, 6-(4-(3-(2-hydroxypropan-2-yl)-1-methyl-1H-pyrazol-4-yl)-2-methylbenzyl)-6,7-dihydro-5H-pyrrolo[3,4-b]pyridin-5-one], the “Agonist Activity Human M1 EC50” value on human mAChRM1 [1] was “inactive”. Moreover, the maximum response (Emax) at human mAChRM1 [2] is 47%. Further, the 50% effective concentration (EC50) on human mAChRM1 [2] (setting [3]) was not below 10000 nM.

For the molecule `Cn1cc(-c2ccc(CN3Cc4ncccc4C3=O)cc2)c(C(C)(C)O)n1` [Compound 32, 6-(4-(3-(2-hydroxypropan-2-yl)-1-methyl-1H-pyrazol-4-yl)benzyl)-6,7-dihydro-5H-pyrrolo[3,4-b]pyridin-5-one], at human mAChRM1 [1], the “Agonist Activity Human M1 EC50” value was “inactive”. The Emax on human mAChRM1 [2] worked out at 48%. Moreover, at human mAChRM1 [2] (setting [3]), the EC50 was not below 10000 nM.

Take `Cn1cc2cc(-c3cc(F)c(CN4Cc5ncccc5C4=O)c(F)c3)cc(C(C)(C)O)c2n1` [Compound 33, 6-(2,6-difluoro-4-(7-(2-hydroxypropan-2-yl)-2-methyl-2H-indazol-5-yl)benzyl)-6,7-dihydro-5H-pyrrolo[3,4-b]pyridin-5-one]: the EC50 was not below 10000 nM at human mAChRM1 [1] and 297 nM at human mAChRM1 [2] (setting [3]). In addition, the Emax was 21% on human mAChRM1 [1] and 66% on human mAChRM1 [2].

Consider `Cn1cc2cc(-c3ccc(CN4Cc5ncccc5C4=O)c(F)c3)cc(C(C)(C)O)c2n1` [Compound 34, 6-(2-fluoro-4-(7-(2-hydroxypropan-2-yl)-2-methyl-2H-indazol-5-yl)benzyl)-6,7-dihydro-5H-pyrrolo[3,4-b]pyridin-5-one], for which the concentration giving a half-maximal response (EC50) at human mAChRM1 [1] is not below 10000 nM; at human mAChRM1 [2] (setting [3]), 326 nM. In addition, the maximal response (Emax) at human mAChRM1 [1] worked out at 17%; at human mAChRM1 [2], 65%.

With `Cc1cc(-c2cc(C(C)(C)O)c3nn(C)cc3c2)ccc1CN1Cc2ncccc2C1=O` [Compound 35, 6-(4-(7-(2-hydroxypropan-2-yl)-2-methyl-2H-indazol-5-yl)-2-methylbenzyl)-6,7-dihydro-5H-pyrrolo[3,4-b]pyridin-5-one], at human mAChRM1 [1], the “Agonist Activity Human M1 EC50” value was “inactive”. On human mAChRM1 [2], the maximal effect (Emax) is 68%. The EC50 at human mAChRM1 [2] (setting [3]) is 958 nM.

In general, Emax refers to the greatest response seen or fitted, relative to the assay's reference. As a reminder, the EC50 is the concentration needed to bring the measured effect to its halfway point.
